Data published in patent publication US20240124434A1, “ATF6 INHIBITORS AND USES THEREOF” (Altos Labs, Inc., priority 2018, published 2024).
Converted amounts (≈) assume the structure as drawn.

Assays:
[1] = in vivo; settings: Balb/c, mouse, po, 10 mg/kg
[2] = Kinetic solubility (nephelometry); format: physicochemical; settings: aqueous buffer, kinetic from dmso stock; PBS pH 7.4, 1% DMSO, 1 hour at 37° C., light scattering at 625 nm
Procedure: Concentration (μM) was then calculated by segmental regression. Amiodarone (#A8423 Aldrich) was used as positive control.

[3] = In vitro microsomal stability, rat liver microsomes; format: in vitro ADME; settings: for microsomal CLint at […], 1 µM: intrinsic clearance, read-out: Clint @ rLM; for Rem. @ rLM (%): remaining fraction after 30 min, 1 μM compound, 0.5 mg/mL rat liver microsomes, 1 mM NADPH
Procedure: (§1) Compounds were incubated at a final concentration of 1 μM with 0.5 mg/mL human liver microsomes (hLM) (#HMMCPL; Thermo), mouse liver microsomes (mLM) (#MSMCPL; Thermo) or rat liver microsomes (rLM) (#RTMCPL; Thermo) and 1 mM reduced dihydronicotinamide-adenine dinucleotide phosphate (NADPH) (#N1630; Sigma) in 100 mM phosphate buffer (pH 7.4) at 37° C. The reactions were terminated at 0, 5, 15 and 30 min by the addition of cold acetonitrile containing 50 ng/mL propranolol as an internal standard. […] Verapamil hydrochloride (#V4369 Aldrich) was used as a positive control in all studies.

[4] = In vitro microsomal stability, human liver microsomes; format: in vitro ADME; settings: for half-life at […], 1 µM: human, read-out: T1/2 @ hLM; for half-life at […], 1 µM / microsomal CLint at […], 1 µM: human liver microsomes, pH 7.4; for microsomal CLint at […], 1 µM: intrinsic clearance, read-out: Clint @ hLM; for Rem. @ hLM (%): remaining fraction after 30 min, 1 μM compound, 0.5 mg/mL human liver microsomes, 1 mM NADPH
Procedure: as §1

[5] = tested on: ATF6; assay: ERSE ATF6-luciferase reporter assay (thapsigargin-induced ER stress); format: cell-based, human; settings: Homo sapiens, U2OS, thapsigargin-induced ER stress, U2-OS ATF6 luc reporter cells; for inhibition at 1 µM: 8 h, read-out: Inh. ATF6-Luc @ 1 μM [%], 1 μM test compound, 8 hr; for IC50: read-out: IC50 ATF6-Luc reporter [μM], dose-response 30 μM to 1 nM
[6] = mouse, in vivo, po, 10 mg/kg; for AUCExtr [%] / F [%] / Vz: Balb/c
[7] = molecular target: CYP3A4 (Homo sapiens (Human), UniProt P08684); assay: CYP inhibition in human liver microsomes; settings: read-out: CYP-3A4; human liver microsomes; probe substrate midazolam
Sequence of CYP3A4 (P08684 whole entry, canonical isoform): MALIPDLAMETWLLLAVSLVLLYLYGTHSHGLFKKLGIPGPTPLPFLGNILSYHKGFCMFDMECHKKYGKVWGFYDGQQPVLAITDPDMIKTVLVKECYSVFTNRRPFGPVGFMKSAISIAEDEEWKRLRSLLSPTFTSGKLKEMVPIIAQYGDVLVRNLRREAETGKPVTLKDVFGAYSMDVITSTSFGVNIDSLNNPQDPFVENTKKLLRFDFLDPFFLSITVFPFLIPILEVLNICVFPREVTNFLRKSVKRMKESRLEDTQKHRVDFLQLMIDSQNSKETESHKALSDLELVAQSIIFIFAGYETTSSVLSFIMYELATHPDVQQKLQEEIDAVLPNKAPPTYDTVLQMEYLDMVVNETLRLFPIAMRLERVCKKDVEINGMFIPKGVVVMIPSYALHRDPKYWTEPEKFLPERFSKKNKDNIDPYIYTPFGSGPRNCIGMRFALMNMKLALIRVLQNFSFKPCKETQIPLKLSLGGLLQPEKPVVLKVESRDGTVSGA
Procedure: (§2) CYP inhibition by test compounds in human liver microsomes (HLM) for seven major CYP450 isoforms CYP1A2, CYP2C9, CYP2D6, CYP2B6, CYP2C8, CYP2C19 and CYP3A4 were assessed. […] 50 μM phenacetin, 2 μM midazolam, 5 μM diclofenac, 50 μM mephenytoin, 80 μM bupropion, and 5 μM dextromethorphan were used as probe substrates of CYP1A2, CYP3A4, CYP2C9, CYP2C19, CYP2B6, and CYP2D6, respectively. The incubation times were 20 min for […], CYP2D6, CYP2C9, CYP2B6, and CYP2C8; 40 min for CYP2C19; and 10 min for CYP 3A4. Following incubations, the reactions were terminated with acetonitrile containing internal standard. The samples were centrifuged and the supernatants were analyzed for the formation of metabolites (1-hydroxymidazolam (CYP3A4), 4-hydroxydiclofenac (CYP2C9), 4-hydroxymephenytoin (CYP2C19) and dextrorphan (CYP2D6), hydroxybupropion (CYP2B6), acetaminophen (CYP1A2), desethylamodiaquine (CYP2C8)) by LC/MS/MS.

[8] = molecular target: CYP2C9 (Homo sapiens (Human), UniProt P11712); assay: CYP inhibition in human liver microsomes; settings: read-out: CYP-2C9; human liver microsomes; probe substrate diclofenac
Sequence of CYP2C9 (P11712 whole entry): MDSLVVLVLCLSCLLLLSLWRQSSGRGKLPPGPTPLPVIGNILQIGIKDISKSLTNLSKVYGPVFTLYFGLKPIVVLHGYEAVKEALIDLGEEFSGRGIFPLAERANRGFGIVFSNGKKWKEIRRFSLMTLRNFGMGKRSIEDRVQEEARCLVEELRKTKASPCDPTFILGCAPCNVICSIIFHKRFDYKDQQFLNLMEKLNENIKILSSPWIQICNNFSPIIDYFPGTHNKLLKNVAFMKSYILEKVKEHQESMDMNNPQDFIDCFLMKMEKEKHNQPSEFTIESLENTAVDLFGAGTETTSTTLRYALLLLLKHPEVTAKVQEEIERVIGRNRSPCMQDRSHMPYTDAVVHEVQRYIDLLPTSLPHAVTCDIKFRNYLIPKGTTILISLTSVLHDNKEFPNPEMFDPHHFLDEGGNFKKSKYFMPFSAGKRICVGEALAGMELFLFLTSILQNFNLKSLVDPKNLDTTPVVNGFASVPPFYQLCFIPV
Procedure: as §2

[9] = molecular target: CYP2B6 (Homo sapiens (Human), UniProt P20813); assay: CYP inhibition in human liver microsomes; settings: read-out: CYP-2B6; human liver microsomes; probe substrate bupropion
Sequence of CYP2B6 (P20813 whole entry): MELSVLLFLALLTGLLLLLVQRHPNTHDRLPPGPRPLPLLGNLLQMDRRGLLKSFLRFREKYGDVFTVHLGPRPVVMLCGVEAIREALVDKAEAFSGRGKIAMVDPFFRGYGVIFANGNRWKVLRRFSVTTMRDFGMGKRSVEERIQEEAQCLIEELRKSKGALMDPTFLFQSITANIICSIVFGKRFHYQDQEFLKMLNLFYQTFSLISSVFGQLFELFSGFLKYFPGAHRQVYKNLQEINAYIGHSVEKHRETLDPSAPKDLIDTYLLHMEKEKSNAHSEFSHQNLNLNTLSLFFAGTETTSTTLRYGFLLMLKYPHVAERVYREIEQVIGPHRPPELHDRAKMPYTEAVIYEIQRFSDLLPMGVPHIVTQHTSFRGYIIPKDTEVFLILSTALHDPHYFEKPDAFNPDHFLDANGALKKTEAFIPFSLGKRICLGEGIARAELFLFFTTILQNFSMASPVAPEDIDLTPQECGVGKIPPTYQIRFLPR
Procedure: as §2

[10] = molecular target: CYP2C19 (Homo sapiens (Human), UniProt P33261); assay: CYP inhibition in human liver microsomes; settings: read-out: CYP-2C19; human liver microsomes; probe substrate mephenytoin
Sequence of CYP2C19 (P33261 whole entry): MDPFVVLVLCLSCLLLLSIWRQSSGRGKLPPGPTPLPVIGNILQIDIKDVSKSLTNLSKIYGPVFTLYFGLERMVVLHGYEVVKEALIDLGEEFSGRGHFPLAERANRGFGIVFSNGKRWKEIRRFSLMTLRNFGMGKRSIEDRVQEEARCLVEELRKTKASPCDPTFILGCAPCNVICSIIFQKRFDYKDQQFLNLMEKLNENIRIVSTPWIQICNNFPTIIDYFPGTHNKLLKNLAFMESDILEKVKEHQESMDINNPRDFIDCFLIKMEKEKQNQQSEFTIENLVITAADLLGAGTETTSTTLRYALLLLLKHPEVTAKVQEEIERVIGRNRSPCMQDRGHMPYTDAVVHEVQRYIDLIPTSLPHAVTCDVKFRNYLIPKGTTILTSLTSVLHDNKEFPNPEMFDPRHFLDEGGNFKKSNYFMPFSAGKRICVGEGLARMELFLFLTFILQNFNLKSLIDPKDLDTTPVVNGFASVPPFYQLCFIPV
Procedure: as §2

[11] = molecular target: CYP2C8 (Homo sapiens (Human), UniProt P10632); assay: CYP inhibition in human liver microsomes; settings: read-out: CYP-2C8, metabolite desethylamodiaquine
Sequence of CYP2C8 (P10632 whole entry): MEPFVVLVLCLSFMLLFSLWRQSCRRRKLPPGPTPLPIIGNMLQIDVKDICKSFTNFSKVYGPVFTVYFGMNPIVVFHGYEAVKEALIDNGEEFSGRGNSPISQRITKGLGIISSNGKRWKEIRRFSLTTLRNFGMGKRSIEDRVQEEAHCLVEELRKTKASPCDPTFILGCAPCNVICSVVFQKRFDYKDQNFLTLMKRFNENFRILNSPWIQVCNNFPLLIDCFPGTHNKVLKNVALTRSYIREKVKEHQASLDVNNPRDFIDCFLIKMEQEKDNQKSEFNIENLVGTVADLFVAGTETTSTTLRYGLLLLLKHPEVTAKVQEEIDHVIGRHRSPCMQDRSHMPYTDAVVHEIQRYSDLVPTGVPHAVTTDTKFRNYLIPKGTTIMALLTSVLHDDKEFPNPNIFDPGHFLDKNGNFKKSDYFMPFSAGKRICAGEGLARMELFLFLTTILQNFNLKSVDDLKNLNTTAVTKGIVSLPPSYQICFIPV
Procedure: as §2

[12] = molecular target: CYP2D6 (Homo sapiens (Human), UniProt P10635); assay: CYP inhibition in human liver microsomes; settings: read-out: CYP-2D6; human liver microsomes; probe substrate dextromethorphan
Sequence of CYP2D6 (P10635 whole entry): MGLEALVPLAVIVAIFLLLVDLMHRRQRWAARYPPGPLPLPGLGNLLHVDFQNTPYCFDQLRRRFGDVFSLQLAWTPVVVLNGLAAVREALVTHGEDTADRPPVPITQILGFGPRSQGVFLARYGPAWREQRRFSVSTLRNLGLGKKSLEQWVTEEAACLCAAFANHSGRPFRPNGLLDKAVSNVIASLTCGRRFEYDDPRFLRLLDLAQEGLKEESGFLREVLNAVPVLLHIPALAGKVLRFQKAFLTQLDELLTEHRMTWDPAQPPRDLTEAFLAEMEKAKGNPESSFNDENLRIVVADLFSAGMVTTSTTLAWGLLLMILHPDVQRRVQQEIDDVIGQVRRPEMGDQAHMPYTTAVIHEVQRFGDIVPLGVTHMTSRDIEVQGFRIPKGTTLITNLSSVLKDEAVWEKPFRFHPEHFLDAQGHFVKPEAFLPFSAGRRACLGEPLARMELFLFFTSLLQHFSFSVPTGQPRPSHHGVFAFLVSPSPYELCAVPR
Procedure: as §2

[13] = In vitro microsomal stability, mouse liver microsomes; format: in vitro ADME; settings: for microsomal CLint at […], 1 µM: intrinsic clearance, read-out: Clint @ mLM; for Rem. @ mLM (%): remaining fraction after 30 min, 1 μM compound, 0.5 mg/mL mouse liver microsomes, 1 mM NADPH
Procedure: as §1

[14] = rat, rat liver microsomes, pH 7.4, read-out: T1/2 @ rLM
[15] = mouse, mouse liver microsomes, pH 7.4, read-out: T1/2 @ mLM

Row | SMILES | AUC(0-inf) [1] [ng·h/mL] | AUC(0-t) [1] [ng·h/mL] | solubility kinetic at 1 h [2] [µM] | microsomal CLint at […], 1 µM ([3]; pH 7.4, rat liver microsomes) [µL/min/mg] | half-life at 1 μM [3, 14] [h] | Rem. @ rLM (%) [3] [%] | half-life at […], 1 µM [4] [h] | microsomal CLint at […], 1 µM [4] [µL/min/mg] | Rem. @ hLM (%) [4] [%] | inhibition at 1 µM [5] [%] | IC50 [5] [µM] | IC50 [7] [µM] | IC50 [8] [µM] | IC50 [9] [µM] | IC50 [10] [µM] | IC50 [11] [µM] | IC50 [12] [µM] | half-life at 1 μM [13, 15] [h] | microsomal CLint at […], 1 µM ([13]; pH 7.4, mouse liver microsomes) [µL/min/mg] | Rem. @ mLM (%) [13] [%] | also measured
1 | O=C(Nc1cnn(Cc2ccc(C(F)(F)F)cc2C(F)(F)F)c1)c1cc(-c2ccccn2)on1 [Compound 11, N-(1-(2,4-bis(trifluoromethyl)benzyl)-1H-pyrazol-4-yl)-5-(pyridin-2-yl)isoxazole-3-carboxamide] | 10300 | 9780 | 9.41 (≈ 4.53 µg/mL) | 44 | 0.522 | 44.8 | 1.12 | 21 | 73.5 | > 50 | < 1 | > 50 | 7.77 | 16.9 | 9.85 | 1.09 | > 50 | 0.422 | 55 | 40.8 | Cmax [1]: 2270 ng/mL; Tmax [1]: 0.25 h; half-life [1]: 6.24 h; AUCExtr [%] [6]: 5.07%; F [%] [6]: 48.6%; Vz [6]: 8.74 L/kg; Last time point for AUClast [6]: 24 h
2 | Cc1c(NC(=O)c2cc(-c3ccco3)on2)cnn1Cc1ccc(C(F)(F)F)cc1C(F)(F)F [Compound 93, N-(1-(2,4-bis(trifluoromethyl)benzyl)-5-methyl-1H-pyrazol-4-yl)-5-(furan-2-yl)isoxazole-3-carboxamide] | – | – | 2.92 (≈ 1.41 µg/mL) | 20.2 | 1.15 | 69.8 | 1.27 | 18.2 | 74.1 | > 50 | < 1 | > 50 | > 50 | > 50 | > 50 | > 50 | > 50 | 0.667 | 34.7 | 51.1 | –
3 | C[C@H](c1ccc(C(F)(F)F)cc1C(F)(F)F)n1cc(NC(=O)c2cn(-c3ccccn3)nn2)cn1 [Compound 121, (R)—N-(1-(1-(2,4-bis(trifluoromethyl)phenyl)ethyl)-1H-pyrazol-4-yl)-1-(pyridine-2-yl)-1H-1,2,3-triazole-4-carboxamide] | – | – | 3.51 (≈ 1.74 µg/mL) | 23.9 | 0.968 | 64.5 | 2.22 | 10.4 | 84.4 | 25 to 50 | < 1 | > 50 | > 45.9 | 23.6 | 2.9 | 30.5 | 35.5 | 0.873 | 26.4 | 62.5 | –
4 | C[C@H](c1ccc(C(F)(F)F)cc1C(F)(F)F)n1cc(NC(=O)c2nnc(-c3ccccn3)s2)cn1 [Compound 123, (R)—N-(1-(1-(2,4-bis(trifluoromethyl)phenyl)ethyl)-1H-pyrazol-4-yl)-5-(pyridin-2-yl)-1,3,4-thiadiazole-2-carboxamide] | 62200 | 38800 | 1.17 (≈ 0.6 µg/mL) | 10.7 | – | 81.5 | 7.67 | 3 | 95.5 | > 50 | < 1 | > 50 | 31.9 | 42.9 | > 50 | 33.3 | > 50 | – | 7.2 | 89.7 | Cmax [1]: 4560 ng/mL; Tmax [1]: 1 h; half-life [1]: 19.1 h; half-life at […], 1 µM [3, 14]: 2.17 h; AUCExtr [%] [6]: 37.7%; F [%] [6]: 64.1%; Vz [6]: 4.43 L/kg; Last time point for AUClast [6]: 24 h; half-life at […], 1 µM [13, 15]: 3.22 h
